Target: T1, human mAChR M1 (Homo sapiens, UniProt P11229)
T1 sequence (P11229 1-460): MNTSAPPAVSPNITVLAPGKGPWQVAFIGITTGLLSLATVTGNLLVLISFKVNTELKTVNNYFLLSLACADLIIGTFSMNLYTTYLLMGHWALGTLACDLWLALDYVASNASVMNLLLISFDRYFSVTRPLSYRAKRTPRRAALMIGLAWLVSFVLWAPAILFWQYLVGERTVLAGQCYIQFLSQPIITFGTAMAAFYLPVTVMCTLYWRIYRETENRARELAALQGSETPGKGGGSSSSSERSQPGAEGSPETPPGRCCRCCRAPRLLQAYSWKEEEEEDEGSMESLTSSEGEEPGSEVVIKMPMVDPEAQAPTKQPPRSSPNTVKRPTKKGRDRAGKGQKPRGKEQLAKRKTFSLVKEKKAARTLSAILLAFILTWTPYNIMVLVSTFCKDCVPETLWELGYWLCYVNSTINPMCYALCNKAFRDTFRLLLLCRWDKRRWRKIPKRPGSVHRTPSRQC
Assay: mAChR M1 cell-based functional assay: calcium mobilization, positive allosteric modulator mode (increase in EC20 acetylcholine response)
Conditions: Table 2, human M1; for EC50: read-out: Human M1 EC50; for Emax: read-out: Human M1 Emax (%)
Method in brief: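 PAM potency reflects the concentration-dependent increase in calcium response to an EC20 acetylcholine challenge, given 144 s into a 300 s read after compound addition at 4 s (EC80 follows at 230 s). Cells were hM1-expressing CHO-K1, loaded 50 min with Fluo-4 AM. Curves used 11 points at 1:3 dilutions and four-parameter logistic fitting.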

Row | SMILES | EC50 [nM] | Emax [%]
1 | Cn1cc(-c2ccc(Cc3cc(C(=O)NCC4CCN4)nc4ccsc34)cn2)cn1 (stereo not shown) [Compound 360, N-(azetidin-2-ylmethyl)-7-[[6-(1-methylpyrazol-4-yl)-3-pyridyl]methyl]thieno[3,2-b]pyridine-5-carboxamide] | 38.5 | 88.1
2 | Cn1cc(-c2ccc(Cc3cc(C(=O)N[C@@H]4CCCOC4)nc4ccsc34)cn2)cn1 [Compound 361, 7-[[6-(1-methylpyrazol-4-yl)-3-pyridyl]methyl]-N-[(3R)-tetrahydropyran-3-yl]thieno[3,2-b]pyridine-5-carboxamide] | 114 | 86.9
3 | Cn1cc(-c2ccc(Cc3cc(C(=O)NC4CCOCC4(C)C)nc4ccsc34)cn2)cn1 (stereo not shown) [Compound 362, N-(3,3-dimethyltetrahydropyran-4-yl)-7-[[6-(1-methylpyrazol-4-yl)-3-pyridyl]methyl]thieno[3,2-b]pyridine-5-carboxamide] | 84.9 | 72.4
4 | COCC(C)NC(=O)c1cc(Cc2ccc(-c3cnn(C)c3)nc2)c2sccc2n1 (stereo not shown) [Compound 363, N-(2-methoxy-1-methyl-ethyl)-7-[[6-(1-methylpyrazol-4-yl)-3-pyridyl]methyl]thieno[3,2-b]pyridine-5-carboxamide] | 321 | 85.2
5 | Cn1cc(-c2ccc(Cc3cc(C(=O)NC4CN(C5COC5)C4)nc4ccsc34)cn2)cn1 [Compound 364] | 832 | 83.8
6 | O=C(NC1COC1)c1cc(Cc2ccc(-c3nccs3)cc2)c2sccc2n1 [Compound 365, N-(oxetan-3-yl)-7-[(4-thiazol-2-ylphenyl)methyl]thieno[3,2-b]pyridine-5-carboxamide] | 1350 | 57.9
7 | O=C(NC1CCCOC1)c1cc(Cc2ccc(-c3nccs3)cc2)c2sccc2n1 (stereo not shown) [Compound 366, N-tetrahydropyran-3-yl-7-[(4-thiazol-2-ylphenyl)methyl]thieno[3,2-b]pyridine-5-carboxamide] | 1870 | 83.7
8 | O=C(NC1CC(F)C1)c1cc(Cc2ccc(-c3nccs3)cc2)c2sccc2n1 (stereo not shown) [Compound 367, N-(3-fluorocyclobutyl)-7-[(4-thiazol-2-ylphenyl)methyl]thieno[3,2-b]pyridine-5-carboxamide] | > 10000 | 71.9
9 | O=C(N[C@@H]1CCOC1)c1cc(Cc2ccc(-c3nccs3)cc2)c2sccc2n1 [Compound 368] | 2300 | 65.6
10 | O=C(N[C@H]1CCOC1)c1cc(Cc2ccc(-c3nccs3)cc2)c2sccc2n1 [Compound 369, N-[(3S)-tetrahydrofuran-3-yl]-7-[(4-thiazol-2-ylphenyl)methyl]thieno[3,2-b]pyridine-5-carboxamide] | 2290 | 59.5
11 | CC1COCCC1NC(=O)c1cc(Cc2ccc(-c3nccs3)cc2)c2sccc2n1 (stereo not shown) [Compound 370, N-(3-methyltetrahydropyran-4-yl)-7-[(4-thiazol-2-ylphenyl)methyl]thieno[3,2-b]pyridine-5-carboxamide] | 400 | 77.7
12 | O=C(N[C@H]1COCC[C@@H]1O)c1cc(Cc2ccc(-c3nccs3)cc2)c2sccc2n1 [Compound 371] | 22.1 | 81.5
13 | COCCCNC(=O)c1cc(Cc2ccc(-c3nccs3)cc2)c2sccc2n1 [Compound 372, N-(3-methoxypropyl)-7-[(4-thiazol-2-ylphenyl)methyl]thieno[3,2-b]pyridine-5-carboxamide] | 1880 | 75.3
14 | COCCNC(=O)c1cc(Cc2ccc(-c3nccs3)cc2)c2sccc2n1 [Compound 373, N-(2-methoxyethyl)-7-[(4-thiazol-2-ylphenyl)methyl]thieno[3,2-b]pyridine-5-carboxamide] | 1420 | 79.6
15 | O=C(NCC1CCOC1)c1cc(Cc2ccc(-c3nccs3)cc2)c2sccc2n1 (stereo not shown) [Compound 374, N-(tetrahydrofuran-3-ylmethyl)-7-[(4-thiazol-2-ylphenyl)methyl]thieno[3,2-b]pyridine-5-carboxamide] | 556 | 73.1
16 | O=C(NCC1CCCCO1)c1cc(Cc2ccc(-c3nccs3)cc2)c2sccc2n1 (stereo not shown) [Compound 375, N-(tetrahydropyran-2-ylmethyl)-7-[(4-thiazol-2-ylphenyl)methyl]thieno[3,2-b]pyridine-5-carboxamide] | > 10000 | 77.4

Row | SMILES | EC50 [nM] | Emax [%]
17 | Cn1ccc(-c2ccc(Cc3cc(C(=O)NC4CCOCC4(C)C)nc4ccsc34)cn2)n1 (stereo not shown) [Compound 376, N-(3,3-dimethyltetrahydropyran-4-yl)-7-[[6-(1-methylpyrazol-3-yl)-3-pyridyl]methyl]thieno[3,2-b]pyridine-5-carboxamide] | 170 | 60.7
18 | CC1CC(NC(=O)c2cc(Cc3ccc(-c4ccn(C)n4)nc3)c3sccc3n2)CC(C)O1 (stereo not shown) [Compound 377, N-(2,6-dimethyltetrahydropyran-4-yl)-7-[[6-(1-methylpyrazol-3-yl)-3-pyridyl]methyl]thieno[3,2-b]pyridine-5-carboxamide] | 412 | 58.7
19 | Cn1ccc(-c2ccc(Cc3cc(C(=O)NC4CCOC(C)(C)C4)nc4ccsc34)cn2)n1 (stereo not shown) [Compound 378, N-(2,2-dimethyltetrahydropyran-4-yl)-7-[[6-(1-methylpyrazol-3-yl)-3-pyridyl]methyl]thieno[3,2-b]pyridine-5-carboxamide] | 167 | 58.9
20 | Cn1cc(-c2ccc(Cc3cc(C(=O)NC4CCOCC4(C)C)nc4ccsc34)cc2)cn1 (stereo not shown) [Compound 379, N-(3,3-dimethyltetrahydropyran-4-yl)-7-[[4-(1-methylpyrazol-4-yl)phenyl]methyl]thieno[3,2-b]pyridine-5-carboxamide] | 150 | 53.9
21 | CC1CC(NC(=O)c2cc(Cc3ccc(-c4cnn(C)c4)cc3)c3sccc3n2)CC(C)O1 (stereo not shown) [Compound 380, N-(2,6-dimethyltetrahydropyran-4-yl)-7-[[4-(1-methylpyrazol-4-yl)phenyl]methyl]thieno[3,2-b]pyridine-5-carboxamide] | 287 | 64.5
22 | Cn1cc(-c2ccc(Cc3cc(C(=O)NC4CCOC(C)(C)C4)nc4ccsc34)cc2)cn1 (stereo not shown) [Compound 381, N-(2,2-dimethyltetrahydropyran-4-yl)-7-[[4-(1-methylpyrazol-4-yl)phenyl]methyl]thieno[3,2-b]pyridine-5-carboxamide] | 98.1 | 60.4
23 | O=C(NCC1CCO1)c1cc(Cc2ccc(-c3nccs3)cc2)c2sccc2n1 (stereo not shown) [Compound 382, N-(oxetan-2-ylmethyl)-7-[(4-thiazol-2-ylphenyl)methyl]thieno[3,2-b]pyridine-5-carboxamide] | 386 | 56.6
24 | O=C(NC1CC(F)(F)C1)c1cc(Cc2ccc(-c3nccs3)cc2)c2sccc2n1 [Compound 383] | > 10000 | 30.4
25 | O=C(NCC1CCCO1)c1cc(Cc2ccc(-c3nccs3)cc2)c2sccc2n1 (stereo not shown) [Compound 384, N-(tetrahydrofuran-2-ylmethyl)-7-[(4-thiazol-2-ylphenyl)methyl]thieno[3,2-b]pyridine-5-carboxamide] | 1370 | 65.2
26 | O=C(NC1CCC(F)(F)CC1)c1cc(Cc2ccc(-c3nccs3)cc2)c2sccc2n1 [Compound 385, N-(4,4-difluorocyclohexyl)-7-[(4-thiazol-2-ylphenyl)methyl]thieno[3,2-b]pyridine-5-carboxamide] | > 10000 | 41.1
27 | CC1CC(NC(=O)c2cc(Cc3ccc(-c4nccs4)cc3)c3sccc3n2)CC(C)O1 (stereo not shown) [Compound 386, N-(2,6-dimethyltetrahydropyran-4-yl)-7-[(4-thiazol-2-ylphenyl)methyl]thieno[3,2-b]pyridine-5-carboxamide] | 1910 | 66.1
28 | O=C(NCC1CCOCC1)c1cc(Cc2ccc(-c3cncs3)cc2)c2sccc2n1 [Compound 387, N-(tetrahydropyran-4-ylmethyl)-7-[(4-thiazol-5-ylphenyl)methyl]thieno[3,2-b]pyridine-5-carboxamide] | 583 | 69.5
29 | CC1(C)CC(NC(=O)c2cc(Cc3ccc(-c4cncs4)cc3)c3sccc3n2)CCO1 (stereo not shown) [Compound 388, N-(2,2-dimethyltetrahydropyran-4-yl)-7-[(4-thiazol-5-ylphenyl)methyl]thieno[3,2-b]pyridine-5-carboxamide] | 846 | 67.8
30 | O=C(NC[C@@H]1CCCO1)c1cc(Cc2ccc(-c3nccs3)cc2)c2sccc2n1 [Compound 389, N-[[(2S)-tetrahydrofuran-2-yl]methyl]-7-[(4-thiazol-2-ylphenyl)methyl]thieno[3,2-b]pyridine-5-carboxamide] | 345 | 64.9
31 | CC1(C)COCCC1NC(=O)c1cc(Cc2ccc(-c3cncs3)cc2)c2sccc2n1 (stereo not shown) [Compound 390, N-(3,3-dimethyltetrahydropyran-4-yl)-7-[(4-thiazol-5-ylphenyl)methyl]thieno[3,2-b]pyridine-5-carboxamide] | 926 | 66.3
32 | CC1CC(NC(=O)c2cc(Cc3ccc(-c4cncs4)cc3)c3sccc3n2)CC(C)O1 (stereo not shown) [Compound 391, N-(2,6-dimethyltetrahydropyran-4-yl)-7-[(4-thiazol-5-ylphenyl)methyl]thieno[3,2-b]pyridine-5-carboxamide] | 1800 | 73.4
